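Growth conditions: 96-well plates. Treatment: test compound, 48 hours, 5 concentrations. Analysis: linear interpolation between bracketing concentrations; unreached endpoints set to highest concentration. At the GI50, growth is halved. TGI denotes the concentration required for complete inhibition of growth.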
Legend:
Assay in all cases: NCI-60 cell line screen, 48 h
LOX IMVI melanoma = tested on: LOX IMVI melanoma
SK-MEL-2 melanoma = tested on: SK-MEL-2 melanoma
NCI-H522 lung = tested on: NCI-H522 lung
TK-10 renal = tested on: TK-10 renal
HCT-15 colon = tested on: HCT-15 colon
HOP-62 NSCLC = tested on: HOP-62 NSCLC
SN12C renal = tested on: SN12C renal
RPMI-8226 leukemia = tested on: RPMI-8226 leukemia
M14 melanoma = tested on: M14 melanoma
UACC-257 melanoma = tested on: UACC-257 melanoma
OVCAR-8 ovarian = tested on: OVCAR-8 ovarian
HCT-116 colon = tested on: HCT-116 colon
UO-31 renal = tested on: UO-31 renal
ACHN renal = tested on: ACHN renal
MOLT-4 leukemia = tested on: MOLT-4 leukemia
786-0 renal = tested on: 786-0 renal
A549 NSCLC = tested on: A549 NSCLC
SK-MEL-28 melanoma = tested on: SK-MEL-28 melanoma
MDA-MB-231 breast = tested on: MDA-MB-231 breast
IGROV1 ovarian = tested on: IGROV1 ovarian
SW-620 colon = tested on: SW-620 colon
SF-268 CNS = tested on: SF-268 CNS
MDA-MB-435 = tested on: MDA-MB-435
DU-145 prostate = tested on: DU-145 prostate
HS 578T breast = tested on: HS 578T breast
RXF 393 renal = tested on: RXF 393 renal
NCI-H460 lung = tested on: NCI-H460 lung
OVCAR-4 ovarian = tested on: OVCAR-4 ovarian
SNB-75 CNS = tested on: SNB-75 CNS
PC-3 prostate = tested on: PC-3 prostate
HT29 colon = tested on: HT29 colon
HL-60(TB) leukemia = tested on: HL-60(TB) leukemia
MALME-3M melanoma = tested on: MALME-3M melanoma
SNB-19 CNS = tested on: SNB-19 CNS
OVCAR-3 ovarian = tested on: OVCAR-3 ovarian
SF-539 CNS = tested on: SF-539 CNS
UACC-62 melanoma = tested on: UACC-62 melanoma
SF-295 CNS = tested on: SF-295 CNS
SK-MEL-5 melanoma = tested on: SK-MEL-5 melanoma
NCI-H23 lung = tested on: NCI-H23 lung
K-562 leukemia = tested on: K-562 leukemia
SR leukemia = tested on: SR leukemia
CAKI-1 renal = tested on: CAKI-1 renal
CCRF-CEM leukemia = tested on: CCRF-CEM leukemia
KM12 colon = tested on: KM12 colon
NCI/ADR-RES ovarian = tested on: NCI/ADR-RES ovarian
HOP-92 NSCLC = tested on: HOP-92 NSCLC
T-47D breast = tested on: T-47D breast
SK-OV-3 ovarian = tested on: SK-OV-3 ovarian
OVCAR-5 ovarian = tested on: OVCAR-5 ovarian
NCI-H226 lung = tested on: NCI-H226 lung
COLO 205 colon = tested on: COLO 205 colon
EKVX NSCLC = tested on: EKVX NSCLC
HCC-2998 colon = tested on: HCC-2998 colon
U251 CNS = tested on: U251 CNS
BT-549 breast = tested on: BT-549 breast
A498 renal = tested on: A498 renal

How did the GI50 (LOX IMVI melanoma) turn out when `C=C1C(=O)O[C@H]2[C@H]1CC/C(Cn1cc(-c3ccc(OC)cc3)nn1)=C\CC[C@@]1(C)O[C@@H]21` was run?
Its GI50 is 1.16 µM.

What about the TGI (LOX IMVI melanoma) of the same compound?
The TGI was 2.51 µM.

What about the GI50 (SK-MEL-2 melanoma) of the same compound?
The GI50 was 1.95 µM.

What about the TGI (SK-MEL-2 melanoma) of the same compound?
The TGI was 4.61 µM.

What about the GI50 (NCI-H522 lung) of the same compound?
Its GI50 is 0.387 µM.

And the TGI (NCI-H522 lung)?
Its TGI is 1.73 µM.

And the GI50 (TK-10 renal)?
The GI50 was 1.42 µM.

And the TGI (TK-10 renal)?
Its TGI is 2.85 µM.

What about the GI50 (HCT-15 colon) of the same compound?
The GI50 was 0.338 µM.

What about the TGI (HCT-15 colon) of the same compound?
Its TGI is 1.38 µM.

And the GI50 (HOP-62 NSCLC)?
The GI50 was 10.5 µM.

What about the TGI (HOP-62 NSCLC) of the same compound?
Its TGI is 23.1 µM.

And the GI50 (SN12C renal)?
Its GI50 is 1.96 µM.

What about the TGI (SN12C renal) of the same compound?
The TGI was 5.27 µM.

And the GI50 (RPMI-8226 leukemia)?
Its GI50 is 1.87 µM.

And the TGI (RPMI-8226 leukemia)?
The TGI was 5.15 µM.

And the GI50 (M14 melanoma)?
Its GI50 is 1.3 µM.

And the TGI (M14 melanoma)?
The TGI was 3.09 µM.

What about the GI50 (UACC-257 melanoma) of the same compound?
Its GI50 is 1.78 µM.

And the TGI (UACC-257 melanoma)?
Its TGI is 3.85 µM.

And the GI50 (OVCAR-8 ovarian)?
The GI50 was 2.59 µM.

What about the TGI (OVCAR-8 ovarian) of the same compound?
Its TGI is 7.67 µM.

What about the GI50 (HCT-116 colon) of the same compound?
The GI50 was 0.488 µM.

And the TGI (HCT-116 colon)?
The TGI was 1.79 µM.

And the GI50 (UO-31 renal)?
The GI50 was 1.27 µM.

What about the TGI (UO-31 renal) of the same compound?
The TGI was 2.64 µM.

And the GI50 (ACHN renal)?
The GI50 was 0.293 µM.

What about the TGI (ACHN renal) of the same compound?
Its TGI is 1.12 µM.

And the GI50 (MOLT-4 leukemia)?
Its GI50 is 1.13 µM.

What about the TGI (MOLT-4 leukemia) of the same compound?
The TGI was 3.66 µM.

What about the GI50 (786-0 renal) of the same compound?
Its GI50 is 1.24 µM.

What about the TGI (786-0 renal) of the same compound?
Its TGI is 2.65 µM.

What about the GI50 (A549 NSCLC) of the same compound?
The GI50 was 10.9 µM.

What about the TGI (A549 NSCLC) of the same compound?
Its TGI is 24.4 µM.

What about the GI50 (SK-MEL-28 melanoma) of the same compound?
The GI50 was 0.822 µM.

What about the TGI (SK-MEL-28 melanoma) of the same compound?
The TGI was 2.41 µM.

What about the GI50 (MDA-MB-231 breast) of the same compound?
The GI50 was 1.44 µM.

And the TGI (MDA-MB-231 breast)?
Its TGI is 3.15 µM.

What about the GI50 (IGROV1 ovarian) of the same compound?
The GI50 was 1.35 µM.

What about the TGI (IGROV1 ovarian) of the same compound?
The TGI was 3.27 µM.

What about the GI50 (SW-620 colon) of the same compound?
The GI50 was 0.498 µM.

And the TGI (SW-620 colon)?
The TGI was 1.74 µM.

And the GI50 (SF-268 CNS)?
The GI50 was 2.07 µM.

What about the TGI (SF-268 CNS) of the same compound?
Its TGI is 5.23 µM.

What about the GI50 (MDA-MB-435) of the same compound?
The GI50 was 1.14 µM.

What about the TGI (MDA-MB-435) of the same compound?
Its TGI is 3.24 µM.

What about the GI50 (DU-145 prostate) of the same compound?
Its GI50 is 1.11 µM.

What about the TGI (DU-145 prostate) of the same compound?
The TGI was 2.32 µM.

What about the GI50 (HS 578T breast) of the same compound?
Its GI50 is 7.42 µM.

What about the TGI (HS 578T breast) of the same compound?
The TGI was 36.9 µM.

And the GI50 (RXF 393 renal)?
Its GI50 is 0.703 µM.

What about the TGI (RXF 393 renal) of the same compound?
The TGI was 2.02 µM.

What about the GI50 (NCI-H460 lung) of the same compound?
The GI50 was 8.45 µM.

What about the TGI (NCI-H460 lung) of the same compound?
The TGI was 25.2 µM.

And the GI50 (OVCAR-4 ovarian)?
The GI50 was 1.52 µM.

What about the TGI (OVCAR-4 ovarian) of the same compound?
The TGI was 3.33 µM.

And the GI50 (SNB-75 CNS)?
Its GI50 is 1.47 µM.

And the TGI (SNB-75 CNS)?
The TGI was 3.28 µM.

What about the GI50 (PC-3 prostate) of the same compound?
Its GI50 is 9.35 µM.

What about the TGI (PC-3 prostate) of the same compound?
The TGI was 22.2 µM.

What about the GI50 (HT29 colon) of the same compound?
Its GI50 is 1.23 µM.

And the TGI (HT29 colon)?
Its TGI is 2.86 µM.

What about the GI50 (HL-60(TB) leukemia) of the same compound?
The GI50 was 1.17 µM.

And the TGI (HL-60(TB) leukemia)?
The TGI was 3.86 µM.

And the GI50 (MALME-3M melanoma)?
Its GI50 is 1.67 µM.

What about the TGI (MALME-3M melanoma) of the same compound?
Its TGI is 3.4 µM.

What about the GI50 (SNB-19 CNS) of the same compound?
Its GI50 is 6.92 µM.

What about the TGI (SNB-19 CNS) of the same compound?
The TGI was 21.4 µM.

What about the GI50 (OVCAR-3 ovarian) of the same compound?
The GI50 was 0.569 µM.

What about the TGI (OVCAR-3 ovarian) of the same compound?
The TGI was 1.8 µM.

And the GI50 (SF-539 CNS)?
Its GI50 is 0.346 µM.

And the TGI (SF-539 CNS)?
Its TGI is 1.49 µM.

And the GI50 (UACC-62 melanoma)?
Its GI50 is 1.35 µM.

What about the TGI (UACC-62 melanoma) of the same compound?
The TGI was 2.99 µM.

And the GI50 (SF-295 CNS)?
Its GI50 is 11 µM.

What about the TGI (SF-295 CNS) of the same compound?
Its TGI is 23.7 µM.

And the GI50 (SK-MEL-5 melanoma)?
The GI50 was 2.1 µM.

And the TGI (SK-MEL-5 melanoma)?
The TGI was 4.69 µM.

And the GI50 (NCI-H23 lung)?
Its GI50 is 2.06 µM.

What about the TGI (NCI-H23 lung) of the same compound?
Its TGI is 4.58 µM.

What about the GI50 (K-562 leukemia) of the same compound?
Its GI50 is 1.3 µM.

What about the TGI (K-562 leukemia) of the same compound?
Its TGI is 6.87 µM.

And the GI50 (SR leukemia)?
The GI50 was 0.257 µM.

And the TGI (SR leukemia)?
Its TGI is 1.48 µM.

What about the GI50 (CAKI-1 renal) of the same compound?
The GI50 was 1.03 µM.

What about the TGI (CAKI-1 renal) of the same compound?
The TGI was 3.63 µM.

What about the GI50 (CCRF-CEM leukemia) of the same compound?
Its GI50 is 0.29 µM.

What about the TGI (CCRF-CEM leukemia) of the same compound?
The TGI was 0.823 µM.

What about the GI50 (KM12 colon) of the same compound?
Its GI50 is 3.51 µM.

And the TGI (KM12 colon)?
The TGI was 14.2 µM.

And the GI50 (NCI/ADR-RES ovarian)?
The GI50 was 3.08 µM.

What about the TGI (NCI/ADR-RES ovarian) of the same compound?
Its TGI is 12.4 µM.

What about the GI50 (HOP-92 NSCLC) of the same compound?
Its GI50 is 1.13 µM.

And the TGI (HOP-92 NSCLC)?
The TGI was 2.69 µM.

And the GI50 (T-47D breast)?
The GI50 was 1.43 µM.

What about the TGI (T-47D breast) of the same compound?
The TGI was 3.08 µM.

And the GI50 (SK-OV-3 ovarian)?
Its GI50 is 16.3 µM.

What about the TGI (SK-OV-3 ovarian) of the same compound?
Its TGI is 29.9 µM.

And the GI50 (OVCAR-5 ovarian)?
Its GI50 is 1.71 µM.

What about the TGI (OVCAR-5 ovarian) of the same compound?
Its TGI is 3.66 µM.

And the GI50 (NCI-H226 lung)?
The GI50 was 1.99 µM.

What about the TGI (NCI-H226 lung) of the same compound?
The TGI was 4.45 µM.

And the GI50 (COLO 205 colon)?
The GI50 was 0.504 µM.

What about the TGI (COLO 205 colon) of the same compound?
Its TGI is 1.95 µM.

What about the GI50 (EKVX NSCLC) of the same compound?
Its GI50 is 2.47 µM.

And the TGI (EKVX NSCLC)?
The TGI was 10.3 µM.

What about the GI50 (HCC-2998 colon) of the same compound?
Its GI50 is 1.98 µM.

And the TGI (HCC-2998 colon)?
Its TGI is 3.64 µM.

And the GI50 (U251 CNS)?
The GI50 was 9.45 µM.

And the TGI (U251 CNS)?
The TGI was 21.5 µM.

What about the GI50 (BT-549 breast) of the same compound?
The GI50 was 1.31 µM.

And the TGI (BT-549 breast)?
The TGI was 2.89 µM.

And the GI50 (A498 renal)?
The GI50 was 2.35 µM.

What about the TGI (A498 renal) of the same compound?
The TGI was 11.3 µM.
